pIC50: −log10 of the molar value.
Biological target: purified human Hsp90
Test: Binding Assay: fluorescence polarization with BODIPY-labeled geldanamycin
Conditions: BODIPY-GM 10 nM, Hsp90 30 nM
How it was run: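 Fluorescence polarization competition with BODIPY-geldanamycin (10 nM final) and human Hsp90 (30 nM final) in HEPES-KOH pH 7.3 buffer with molybdate, NP-40, DTT; 2% DMSO, overnight at room temperature. Read 485/530 nm; percent inhibition from mP normalized to DMSO controls, fluorescent-compound points excluded.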

SMILES | pIC50 | % Inhibition at 5 μM Compound Concentration
COc1ccc(OC)c(Sc2nc3c(N)ncnc3n2CCc2cccc(F)c2F)c1 [Example 145, 9-[2-(2,3-Difluoro-phenyl)-ethyl]-8-(2,5-dimethoxy-phenylsulfanyl)-9H-purin-6-ylamine] | < 5.52 | –
COc1ccc(OC)c(Sc2nc3c(N)ncn(CCc4cccc(F)c4F)c-3n2)c1 [Example 146, 3-[2-(2,3-difluoro-phenyl)-ethyl]-8-(2,5-dimethoxy-phenylsulfanyl)-3H-purin-6-ylamine] | – | 0%
Nc1ncnc2c1nc(Sc1cc3c(cc1Br)OCO3)n2CCc1ccccc1F [Example 147, 8-(6-Bromo-1,3-benzodioxol-5-ylsulfanyl)-9-[2-(2-fluoro-phenyl)-ethyl]-9H-purin-6-ylamine] | 7.36 | –
Nc1ncn(CCc2ccccc2F)c2nc(Sc3cc4c(cc3Br)OCO4)nc1-2 [Example 148, 8-(6-bromo-benzo[1,3]dioxol-5-ylsulfanyl)-3-[2-(2-fluoro-phenyl)-ethyl]-3H-purin-6-ylamine] | – | 35%
Nc1ncnc2c1nc(Sc1cc3c(cc1Br)OCO3)n2CCc1ccccc1Br [Example 149, 8-(6-Bromo-benzo[1,3]dioxol-5-ylsulfanyl)-9-[2-(2-bromo-phenyl)-ethyl]-9H-purin-6-ylamine] | 7.15 | –
Nc1ncn(CCc2ccccc2Br)c2nc(Sc3cc4c(cc3Br)OCO4)nc1-2 [Example 150, 8-(6-bromo-benzo[1,3]dioxol-5-ylsulfanyl)-3-[2-(2-bromo-phenyl)-ethyl]-3H-purin-6-ylamine] | – | 0%
Nc1ncnc2c1nc(Sc1cc3c(cc1Br)OCO3)n2CCc1cccnc1 [Example 151, 8-(6-Bromo-benzo[1,3]dioxol-5-ylsulfanyl)-9-(2-pyridin-3-yl-ethyl)-9H-purin-6-ylamine] | 7.30 | –
Nc1ncn(CCc2cccnc2)c2nc(Sc3cc4c(cc3Br)OCO4)nc1-2 [Example 152, 8-(6-bromo-benzo[1,3]dioxol-5-ylsulfanyl)-3-(2-pyridin-3-yl-ethyl)-3H-purin-6-ylamine] | – | 20%
Nc1ncnc2c1nc(Sc1cc3c(cc1Br)OCO3)n2CCc1cccc(I)c1 [Example 153, 8-(6-Bromo-benzo[1,3]dioxol-5-ylsulfanyl)-9-[2-(3-iodo-phenyl)-ethyl]-9H-purin-6-ylamine] | 6.22 | –
Nc1ncn(CCc2cccc(I)c2)c2nc(Sc3cc4c(cc3Br)OCO4)nc1-2 [Example 154, 8-(6-Bromo-benzo[1,3]dioxol-5-ylsulfanyl)-3-[2-(3-iodo-phenyl)-ethyl]-3H-purin-6-ylamine] | – | >10%
Cc1ccccc1CCn1c(Sc2cc3c(cc2Br)OCO3)nc2c(N)ncnc21 [Example 155, 8-(6-Bromo-benzo[1,3]dioxol-5-ylsulfanyl)-9-(2-o-tolyl-ethyl)-9H-purin-6-ylamine] | 7.02 | –
Cc1ccccc1CCn1cnc(N)c2nc(Sc3cc4c(cc3Br)OCO4)nc1-2 [Example 156, 8-(6-bromo-benzo[1,3]dioxol-5-ylsulfanyl)-3-(2-o-tolyl-ethyl)-3H-purin-6-ylamine] | – | 16%
Nc1ncnc2c1nc(Sc1cc3c(cc1Br)OCO3)n2CCc1cccc2ccccc12 [Example 157, 8-(6-Bromo-benzo[1,3]dioxol-5-ylsulfanyl)-9-(2-naphthalen-1-yl-ethyl)-9H-purin-6-ylamine] | 6.30 | 58%
Nc1ncn(CCc2cccc3ccccc23)c2nc(Sc3cc4c(cc3Br)OCO4)nc1-2 [Example 158, 8-(6-bromo-benzo[1,3]dioxol-5-ylsulfanyl)-3-(2-naphthalen-1-yl-ethyl)-3H-purin-6-ylamine] | – | 0%
CC(=O)c1ccc(CCn2c(Sc3cc4c(cc3Br)OCO4)nc3c(N)ncnc32)cc1 [Example 159, 1-(4-{2-[6-Amino-8-(6-bromo-benzo[1,3]dioxol-5-ylsulfanyl)-purin-9-yl]-ethyl}-phenyl)-ethanone] | 6.10 | 63%
CC(=O)c1ccc(CCn2cnc(N)c3nc(Sc4cc5c(cc4Br)OCO5)nc2-3)cc1 [Example 160, 1-(4-{2-[6-amino-8-(6-bromo-benzo[1,3]dioxol-5-ylsulfanyl)-purin-3-yl]-ethyl}-phenyl)-ethanone] | – | 0%
Nc1ncnc2c1nc(Sc1cc3c(cc1Br)OCO3)n2CCc1cccc(F)c1F [Example 161, 8-(6-Bromo-benzo[1,3]dioxol-5-ylsulfanyl)-9-[2-(2,3-difluoro-phenyl)-ethyl]-9H-purin-6-ylamine] | 6.49 | 17%

SMILES | pIC50 | % Inhibition at 5 μM Compound Concentration
Nc1ncn(CCc2cccc(F)c2F)c2nc(Sc3cc4c(cc3Br)OCO4)nc1-2 [Example 162, 8-(6-bromo-benzo[1,3]dioxol-5-ylsulfanyl)-3-[2-(2,3-difluoro-phenyl)-ethyl]-3H-purin-6-ylamine] | – | 0%
Cc1ccc(CCn2c(Sc3cc4c(cc3Br)OCO4)nc3c(N)ncnc32)cc1 [Example 163, 8-(6-Bromo-benzo[1,3]dioxol-5-ylsulfanyl)-9-(2-p-tolyl-ethyl)-9H-purin-6-ylamine] | – | >10%
Cc1ccc(CCn2cnc(N)c3nc(Sc4cc5c(cc4Br)OCO5)nc2-3)cc1 [Example 164, 8-(6-bromo-benzo[1,3]dioxol-5-ylsulfanyl)-3-(2-p-tolyl-ethyl)-3H-purin-6-ylamine] | – | 0%
Nc1ncnc2c1nc(Sc1cc3c(cc1Br)OCO3)n2CCc1cccc(C(F)(F)F)c1 [Example 165, 8-(6-Bromo-benzo[1,3]dioxol-5-ylsulfanyl)-9-[2-(3-trifluoromethyl-phenyl)-ethyl]-9H-purin-6-ylamine] | 6.52 | 60%
Nc1ncn(CCc2cccc(C(F)(F)F)c2)c2nc(Sc3cc4c(cc3Br)OCO4)nc1-2 [Example 166, 8-(6-Bromo-benzo[1,3]dioxol-5-ylsulfanyl)-3-[2-(3-trifluoromethyl-phenyl)-ethyl]-3H-purin-6-ylamine] | – | 0%
COc1ccc(OC)c(Sc2nc3c(N)ncnc3n2CCc2ccc3c(c2)OCO3)c1 [Example 167, 9-(2-Benzo[1,3]dioxol-5-yl-ethyl)-8-(2,5-dimethoxy-phenylsulfanyl)-9H-purin-6-ylamine] | < 4.60 | 44%
COc1ccc(OC)c(Sc2nc3c(N)ncn(CCc4ccc5c(c4)OCO5)c-3n2)c1 [Example 168, 3-(2-benzo[1,3]dioxol-5-yl-ethyl)-8-(2,5-dimethoxy-phenylsulfanyl)-3H-purin-6-ylamine] | – | 0%
COc1ccc(OC)c(Sc2nc3c(N)ncnc3n2CCC2CCCCC2)c1 [Example 169, 9-(2-Cyclohexyl-ethyl)-8-(2,5-dimethoxyphenyl-sulfanyl)-9H-purin-6-ylamine] | 6.33 | 37%
COc1ccc(OC)c(Sc2nc3c(N)ncn(CCC4CCCCC4)c-3n2)c1 [Example 170, 3-(2-cyclohexyl-ethyl)-8-(2,5-dimethoxy-phenylsulfanyl)-3H-purin-6-ylamine] | – | 3%
Nc1ncnc2c1nc(Sc1cc3c(cc1Br)OCO3)n2CCc1ccc(-c2ccccc2)cc1 [Example 171, 9-(2-Biphenyl-4-yl-ethyl)-8-(6-bromo-benzo[1,3]dioxol-5-ylsulfanyl)-9H-purin-6-ylamine] | < 4.60 | –
Nc1ncn(CCc2ccc(-c3ccccc3)cc2)c2nc(Sc3cc4c(cc3Br)OCO4)nc1-2 [Example 172, 3-(2-biphenyl-4-yl-ethyl)-8-(6-bromo-benzo[1,3]dioxol-5-ylsulfanyl)-3H-purin-6-ylamine] | – | >10%
Nc1ncnc2c1nc(Sc1cc3c(cc1Br)OCO3)n2CCC1CCCCC1 [Example 173, 8-(6-Bromo-benzo[1,3]dioxol-5-ylsulfanyl)-9-(2-cyclohexyl-ethyl)-9H-purin-6-ylamine] | < 4.60 | 44%
Nc1ncn(CCC2CCCCC2)c2nc(Sc3cc4c(cc3Br)OCO4)nc1-2 [Example 174, 8-(6-bromo-benzo[1,3]dioxol-5-ylsulfanyl)-3-(2-cyclohexyl-ethyl)-3H-purin-6-ylamine] | < 4.60 | 37%
COc1ccc(OC)c(Sc2nc3c(N)ncnc3n2CCc2ccc(S(=O)(=O)O)cc2)c1 [Example 175, 4-{2-[6-Amino-8-(2,5-dimethoxy-phenylsulfanyl)-purin-9-yl]-ethyl}-benzenesulfonic acid] | 4.85 | 46%
COc1ccc(OC)c(Sc2nc3c(N)ncn(CCc4ccc(S(=O)(=O)O)cc4)c-3n2)c1 [Example 176, 4-{2-[6-amino-8-(2,5-dimethoxy-phenylsulfanyl)-purin-3-yl]-ethyl}-benzenesulfonic acid] | – | 6%
Nc1ncnc2c1nc(Sc1cc3c(cc1Br)OCO3)n2CC(O)c1ccc(Cl)cc1Cl (stereo not shown) [Example 177, 2-[6-Amino-8-(6-bromo-benzo[1,3]dioxol-5-ylsulfanyl)-purin-9-yl]-1-(2,4-dichloro-phenyl)-ethanol] | – | 0%
Nc1ncn(CC(O)c2ccc(Cl)cc2Cl)c2nc(Sc3cc4c(cc3Br)OCO4)nc1-2 (stereo not shown) [Example 178, 2-[6-amino-8-(6-bromo-benzo[1,3]dioxol-5-ylsulfanyl)-purin-3-yl]-1-(2,4-dichloro-phenyl)-ethanol] | – | 9%

From patent US7595401B2, “Therapeutic compounds and their use in cancer” (Myriad Pharmaceuticals, Inc., priority 2006, dated 2009)
